Assay results as given in patent US7247706B2, “Double mutant alpha-7 nicotinic acetylcholine receptors” (Pharmacia & Upjohn Company, priority 1999, dated 2007).
Where two headings read alike, the source gives them in different places.

Legend:
α7 nAChR [1] = biological target: T1, α7 nAChR (Homo sapiens, UniProt P36544); conditions: endogenous α7 nACh receptor; cited from earlier work
[2] = biological target: T2, α7/5-HT3 Chimeric Ligand Gated Ion Channel (Homo sapiens, UniProt P36544, M226I/T225I); assay type: binding, human α7 / mouse 5-HT3; conditions: for IC50: read-out: Fitc-α-Bungoarotoxin Binding (30 nM) IC50
T2 construct: expressed in transfected cells
T2 sequence (P36544 with tags, fused parts or gaps T225I/M226I): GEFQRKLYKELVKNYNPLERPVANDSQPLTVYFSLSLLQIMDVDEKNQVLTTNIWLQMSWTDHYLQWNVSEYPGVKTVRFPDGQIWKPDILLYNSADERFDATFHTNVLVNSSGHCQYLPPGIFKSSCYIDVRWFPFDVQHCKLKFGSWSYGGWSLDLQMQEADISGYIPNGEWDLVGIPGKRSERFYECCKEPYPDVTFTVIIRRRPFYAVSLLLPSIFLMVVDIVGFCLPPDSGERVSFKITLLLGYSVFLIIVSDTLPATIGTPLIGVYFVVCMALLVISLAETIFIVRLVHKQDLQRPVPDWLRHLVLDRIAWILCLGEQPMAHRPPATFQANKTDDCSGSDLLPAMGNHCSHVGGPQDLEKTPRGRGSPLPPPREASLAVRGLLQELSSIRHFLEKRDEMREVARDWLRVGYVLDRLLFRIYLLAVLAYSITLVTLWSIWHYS

α7/5-HT3 channel = biological target: T3, α7/5-HT3 channel (Homo sapiens, UniProt P36544, M226I/T225I); test: Calcium flux assay on FLIPR, agonist activity, α7/5-HT3-SHEP cells; assay type: cell-based, human α7 / mouse 5-HT3; conditions: for EC50: calcium flux
T3 construct: expressed in transfected cells
T3 sequence (P36544 with tags, fused parts or gaps T225I/M226I): as above
Description: The α7/5-HT3-SHEP or alternatively the human α7 nACHR double mutant SHEP (described below) cells were grown in minimal essential medium (MEM) containing nonessential amino acids supplemented with 10% fetal bovine serum, L-glutamine, 100 units/ml penicillin/streptomycin, 250 ng/ml fungizone, 400 μg/ml Hygromycin-B, and 800 μg/ml Geneticin. The cells were grown in a 37° C. incubator with 6% CO2. The α7/5-HT3-SHEP cells were trypsinized and plated in 96 well plates with dark side walls and clear bottoms (Corning # 3614) at density of […] cells per well two days before analysis. The cells were loaded in a 1:1 mixture of 2 mM Calcium Green-1, AM (Molecular Probes) prepared in anhydrous dimethylsulfoxide and 20% pluonic F-127 (Molecular Probes). This reagent was added directly to the growth medium of each well to achieve a final concentration of 2 μM of Calcium Green-1, AM. The cells were incubated in the dye for one hour at 37° C. and then washed with 4 cycles of Bio-Tek plate washer. Each cycle was programmed to wash each well with four times with either EBSS or MMEBSS. After the third cycle, the cells were allowed to incubate at 37° C. for at least ten minutes. After the fourth cycle final volume in each well was 100 μl. The cells were analyzed on FLIPR (Molecular Devices) for the change in fluorescence after the addition of a 100 μl of a 2× drug stock. FLIPR was set up to excite the dye with at 488 nanometers using 500 mW of power. A 0.5 second exposure was used to illuminate each well. Fluorescence emission was recorded above 525 nm. Fluorescence was detected using a F-stop set of either 2.0 or 1.2.
We compared the physiological Earles Balanced Salt Solution (EBBS) buffer and the special cell culture media (MMEBSS) in the Ca^++functional assay on FLIPR.
The special cell culture media, designated MMEBSS is comprised of 4 mM CaCl2, 0.8 mM MgSO4, 20 mM NaCl, 5.3 mM KCL, 5.6 mM D-Glucose, 120 mM N-Methyl-D-Glucosamine, 9 mM Tris base and 20 mM HEPES. A detailed description of the preparation of MMEBSS is provided below.

[3] = biological target: double mutant human α7 ligand gated ion channel (Homo sapiens, UniProt P36544, C241S/T230P); conditions: 100 M nicotine as printed
double mutant human α7 ligand gated ion channel, sequence (P36544 23-502 T230P/C241S): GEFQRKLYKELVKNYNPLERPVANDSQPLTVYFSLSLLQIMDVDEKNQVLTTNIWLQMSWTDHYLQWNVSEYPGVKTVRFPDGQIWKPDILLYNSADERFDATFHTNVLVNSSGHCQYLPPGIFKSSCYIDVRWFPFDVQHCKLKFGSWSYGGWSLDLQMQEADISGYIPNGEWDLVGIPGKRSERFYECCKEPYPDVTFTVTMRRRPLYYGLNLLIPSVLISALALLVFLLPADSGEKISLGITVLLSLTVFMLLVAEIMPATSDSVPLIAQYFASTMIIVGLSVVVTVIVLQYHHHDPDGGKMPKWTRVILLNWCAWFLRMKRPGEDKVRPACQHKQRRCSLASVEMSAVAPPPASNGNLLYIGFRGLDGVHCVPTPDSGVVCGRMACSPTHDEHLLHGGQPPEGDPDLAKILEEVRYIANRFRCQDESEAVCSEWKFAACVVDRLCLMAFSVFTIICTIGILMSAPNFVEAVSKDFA
Description: The cells were grown in a 37° C. incubator with 6% CO2. […] Each cycle was programmed to wash each well with four times with either EBSS or MMEBSS. […] A 0.5 second exposure was used to illuminate each well. Fluorescence was detected using a F-stop set of either 2.0 or 1.2.

α7 nAChR [4] = biological target: T1, α7 nAChR; conditions: human receptor; cited from earlier work
chicken α7 nAChR = chicken α7 nAChR (Gallus gallus, UniProt P22770); conditions: chicken receptor; cited from earlier work
chicken α7 nAChR, sequence (P22770 23-502 limits assumed): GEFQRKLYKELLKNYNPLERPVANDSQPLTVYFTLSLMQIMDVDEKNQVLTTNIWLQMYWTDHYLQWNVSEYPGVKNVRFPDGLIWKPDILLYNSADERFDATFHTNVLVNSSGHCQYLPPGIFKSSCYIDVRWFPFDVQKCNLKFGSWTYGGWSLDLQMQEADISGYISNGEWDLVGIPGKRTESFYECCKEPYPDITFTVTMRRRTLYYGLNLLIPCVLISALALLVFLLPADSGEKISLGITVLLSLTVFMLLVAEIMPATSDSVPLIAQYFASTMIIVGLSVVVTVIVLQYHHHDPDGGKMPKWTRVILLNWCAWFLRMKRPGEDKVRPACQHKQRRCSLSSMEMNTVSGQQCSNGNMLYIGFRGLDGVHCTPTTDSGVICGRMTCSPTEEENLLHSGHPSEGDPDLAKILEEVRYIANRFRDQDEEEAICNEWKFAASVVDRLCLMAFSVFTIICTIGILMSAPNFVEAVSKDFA

T1 sequence (P36544 23-502): as the sequence (P36544 23-502 T230P/C241S) above, with P208T, S219C counted along it

| Structure (SMILES) | EC50 (α7 nAChR [1]) | IC50 [2] | EC50 (α7/5-HT3 channel; MMEBSS) | other results |
| --- | --- | --- | --- | --- |
| Clc1ccc([C@@H]2C[C@H]3CC[C@@H]2N3)cn1 (racemic) [(+/−) Epibatidine] | 2 µM | 0.09 µM | 0.12 µM | Ki ([2]; read-out: Ki, competition for Fl-btx binding): 0.09 µM |
| CN1CCCC1c1cccnc1 (single isomer, unassigned; (-)) [(−) Nicotine] | – | – | – | Calcium influx [3]: induced a maximal calcium influx; Competition of Fl-btx binding [2]: competes at all concentrations of Fl-btx; Calcium response to agonist in physiological buffer (α7/5-HT3 channel; 100 μM, EBSS, FIG. 6): little calcium was detected; Calcium response to agonist in special cell culture media (α7/5-HT3 channel; 100 μM, MMEBSS, FIG. 6): evoked a large increase in intracellular calcium |
| C[N+]1(C)CCN(c2ccccc2)CC1 [1,1-dimethyl-4-phenylpiperazinium] | – | – | – | Agonist character (α7 nAChR [4]): full agonist; Agonist character (chicken α7 nAChR): partial agonist |
| Cc1cc([C@@H]2CCCN2C)on1 [ABT-418] | 70 µM | 38 µM | 27 µM | – |
| c1cncc(C2=NCCCC2)c1 [Anabaseine] | 6 µM | – | 6.6 µM | – |
| COc1ccc(/C=C2\CCCN=C2c2cccnc2)c(OC)c1 [GTS-21] | 30 µM | – | – | IC50 ([2]; 30 nM Fl-btx, whole cell): 16 µM |
| CNC1(C)C2CCC(C2)C1(C)C (stereo not shown) [Mecamylamine] | – | > 300 µM | – | – |
| CCN1C[C@]2(COC(=O)c3ccccc3N3C(=O)C[C@H](C)C3=O)CC[C@H](OC)[C@@]34[C@@H]5C[C@H]6[C@H](OC)[C@@H]5[C@](O)(C[C@@H]6OC)[C@](O)([C@@H](OC)[C@H]23)[C@@H]14 [Methyllcaconitine (MLA), Methyllcaconitine] | – | 0.026 µM | – | – |
